US20230339968A1, “KRAS Gl2C INHIBITORS” (Eli Lilly and Company, priority 2019, published 2023)

How the values were obtained:
H1373 (lung) xenograft [1] = assay: Anti-tumor growth activity, H1373 xenograft model; type: in vivo, mouse
Description: For xenograft models of H1373, HCC44, MiaPaca-2, SW1463, KYSE-410 and UM-UC-3, typically 5-10×10^6 cells in a 1:1 matrigel mix (0.2 mL total volume) are implanted by subcutaneous injection in hind leg of nude mice. […] Treatment is initiated with oral administration (gavage) of testing compound or vehicle (20% captisol, 25 mM phosphate, pH2.0) in 0.2 mL volume when tumor size reaches approximately 200-300 mg. Tumor growth and body weight are monitored over time to evaluate efficacy and signs of toxicity. For EL3187 PDX model, frozen vials containing tumor fragments are thawed at 37° C. in a water bath. The tumor fragments are transferred to 50 mL Falcon tube and the ice cold DMEM medium is slowly added into the tube to a total volume of 35 mL. Then the tumor fragments are centrifuged at 130×g for 2 minutes at 4° C. and supernatant is aspirated. This washing step is repeated twice and the tumor fragments are resuspended in 10 mL DMEM for implantation into athymic nude-Foxn1nu mice (Envigo RMS, Inc., Mount Comfort, Indiana). Once tumor volumes reach 800 to 1000 mm^3, animals are sacrificed and tumors are harvested using aseptic technique. Fresh tumors are cut into 10 to 15 mm^3 fragments and placed into cold Gibco hibernate medium. The tumor fragments are subcutaneously implanted into animals with a 10 g trochar needle. When tumor size reaches 200 to 300 mm^3, the animals are randomized for compound treatment.
(§1) Among models listed in Table 31, EL3187 is a patient-derived xenograft (PDX) model, and all other are tumor xenograft models.

HCC44 (lung) xenograft = assay: Anti-tumor growth activity, HCC44 xenograft model; type: in vivo, mouse
Description: (§2) For xenograft models of H1373, HCC44, MiaPaca-2, SW1463, KYSE-410 and UM-UC-3, typically 5-10×10^6 cells in a 1:1 matrigel mix (0.2 mL total volume) are implanted by subcutaneous injection in hind leg of nude mice. Generally, a total of 4 mice each group are used for efficacy study. Treatment is initiated with oral administration (gavage) of testing compound or vehicle (20% captisol, 25 mM phosphate, pH2.0) in 0.2 mL volume when tumor size reaches approximately 200-300 mg. Tumor growth and body weight are monitored over time to evaluate efficacy and signs of toxicity. For EL3187 PDX model, frozen vials containing tumor fragments are thawed at 37° C. in a water bath. The tumor fragments are transferred to 50 mL Falcon tube and the ice cold DMEM medium is slowly added into the tube to a total volume of 35 mL. Then the tumor fragments are centrifuged at 130×g for 2 minutes at 4° C. and supernatant is aspirated. This washing step is repeated twice and the tumor fragments are resuspended in 10 mL DMEM for implantation into athymic nude-Foxn1nu mice (Envigo RMS, Inc., Mount Comfort, Indiana). Once tumor volumes reach 800 to 1000 mm^3, animals are sacrificed and tumors are harvested using aseptic technique. Fresh tumors are cut into 10 to 15 mm^3 fragments and placed into cold Gibco hibernate medium. The tumor fragments are subcutaneously implanted into animals with a 10 g trochar needle. When tumor size reaches 200 to 300 mm^3, the animals are randomized for compound treatment.
as §1

[2] = system: MiaPaca-2 (pancreas) xenograft; assay: Anti-tumor growth activity, MiaPaca-2 xenograft model; type: in vivo, mouse
Description: as §2, §1

SW1463 (CRC) xenograft = assay: Anti-tumor growth activity, SW1463 xenograft model; type: in vivo, mouse
Description: as §2, §1

[3] = system: KYSE-410 (Esophagus) xenograft; assay: Anti-tumor growth activity, KYSE-410 xenograft model; type: in vivo, mouse
Description: as §2, §1

H1373 (lung) xenograft [4] = assay: In vivo combination efficacy with other targeted therapies, H1373 xenograft model; design: species or system mouse; settings: 10 mg/kg QD × 28
Excerpt: (§3) A total of six in vivo xenograft or PDX models—four lung models (H358, H1373, LU99, and EL3187 PDX), one colorectal model (SW1463) and one pancreatic model (MiaPaca-2)—are utilized.

[5] = system: SW1463 (colorectal) xenograft; assay: In vivo combination efficacy with other targeted therapies, SW1463 xenograft model; design: species or system mouse; settings: SW1463 (CRC), 10 mg/kg QD × 28
Excerpt: as §3

H358 cells = assay: 3D H358 Cell Proliferation Assay; type: cell-based; settings: Homo sapiens, NCI-H358; H358, 3D, 96 hours; read-out: relative IC50
Description: The purpose of this assay is to evaluate test compound inhibition in a 3D proliferation assay using human lung cancer cells, H358, (ATCC CRL-5807). Signal reflecting cell proliferation is detected with the CellTiterGlo® 3D reagent (Promega G9683). The cells are grown in RPMI 1640 (GIBCO®) supplemented with 10% heat inactivated FBS and 0.1 mg/mL penicillin/streptomycin. H358 cells are cultured in the growth phase and five thousand cells per well are plated in a black well clear round bottom 96-well ultra-low attachment surface plate (Corning® Cat 4520) with 80 μL/well of culture media. Cells are incubated overnight at 37° C. in a humidity chamber. 20 μL/well of serially diluted test compound is added to the plate which is then incubated for 96 hours. Plates are brought to ambient temperature and an equal volume of ambient temperature CellTiterGlo® 3D reagent is added. Plates are shaken at 750 RPM for 10 minutes at ambient temperature. After a 1 hour incubation at ambient temperature to stabilize the signal, the luminescent signal is measured on the EnVision™ plate reader. The signal is converted to percent inhibition using the following equation: % Inhibition=100−[(Test Compound Signal−Median Minimum Signal)/(Median Maximum Signal−Median Minimum Signal)×100]. […]
Compounds within the scope of this invention are evaluated in this assay substantially as described above.

## C=CC(=O)N1CCN2C(=O)c3cc(F)c(-c4ccc(F)c5sc(N)c(C#N)c45)c(Cl)c3OCC[C@H]2C1 [Example 35, 4-[(13aS)-10-Chloro-8-fluoro-6-oxo-2-prop-2-enoyl-1,3,4,12,13,13a-hexahydropyrazino[2,1-d][1,5]benzoxazocin-9-yl]-2-amino-7-fluoro-benzothiophene-3-carbonitrile]
H1373 (lung) xenograft [1]; 5 mg/kg BID × 28, oral
  tumor growth inhibition (%) or regression (−%): −26.3%
H1373 (lung) xenograft [1]; 10 mg/kg BID × 28, oral
  tumor growth inhibition (%) or regression (−%): −49%
H1373 (lung) xenograft [1]; 10 mg/kg QD × 28, oral
  tumor growth inhibition (%) or regression (−%): −21.3%
H1373 (lung) xenograft [1]; 30 mg/kg QD × 28, oral
  tumor growth inhibition (%) or regression (−%): −49.7%
HCC44 (lung) xenograft; 5 mg/kg BID × 28, oral
  tumor growth inhibition (%) or regression (−%): 57.5%
HCC44 (lung) xenograft; 5 mg/kg QD × 28, oral
  tumor growth inhibition (%) or regression (−%): 28.3%
HCC44 (lung) xenograft; 10 mg/kg BID × 28, oral
  tumor growth inhibition (%) or regression (−%): 61.8%
HCC44 (lung) xenograft; 10 mg/kg QD × 28, oral
  tumor growth inhibition (%) or regression (−%): 32.7%
HCC44 (lung) xenograft; 30 mg/kg BID × 28, oral
  tumor growth inhibition (%) or regression (−%): 84.1%
HCC44 (lung) xenograft; 30 mg/kg QD × 28, oral
  tumor growth inhibition (%) or regression (−%): 77%
[2]; 5 mg/kg BID × 28, oral
  tumor growth inhibition (%) or regression (−%): −36.1%
[2]; 5 mg/kg QD × 28, oral
  tumor growth inhibition (%) or regression (−%): 81.7%
[2]; 10 mg/kg BID × 28, oral
  tumor growth inhibition (%) or regression (−%): −45.2%
[2]; 10 mg/kg QD × 28, oral
  tumor growth inhibition (%) or regression (−%): −27%
[2]; 30 mg/kg BID × 28, oral
  tumor growth inhibition (%) or regression (−%): −43.6%
[2]; 30 mg/kg QD × 28, oral
  tumor growth inhibition (%) or regression (−%): −42%
SW1463 (CRC) xenograft; 5 mg/kg BID × 28, oral
  tumor growth inhibition (%) or regression (−%): 48.8%
SW1463 (CRC) xenograft; 5 mg/kg QD × 28, oral
  tumor growth inhibition (%) or regression (−%): 52.5%
SW1463 (CRC) xenograft; 10 mg/kg BID × 28, oral
  tumor growth inhibition (%) or regression (−%): 79.5%
SW1463 (CRC) xenograft; 10 mg/kg QD × 28, oral
  tumor growth inhibition (%) or regression (−%): 78.3%
SW1463 (CRC) xenograft; 30 mg/kg BID × 28, oral
  tumor growth inhibition (%) or regression (−%): 98.8%
SW1463 (CRC) xenograft; 30 mg/kg QD × 28, oral
  tumor growth inhibition (%) or regression (−%): 89.8%
[3]; 10 mg/kg BID × 28, oral
  tumor growth inhibition (%) or regression (−%): 51.5%
[3]; 10 mg/kg QD × 28, oral
  tumor growth inhibition (%) or regression (−%): 25.3%
[3]; 30 mg/kg BID × 28, oral
  tumor growth inhibition (%) or regression (−%): 61.8%
[3]; 30 mg/kg QD × 28, oral
  tumor growth inhibition (%) or regression (−%): 66.7%
H1373 (lung) xenograft [4]
  Tumor Growth Inhibition (%) and Regression (−%): 98.5%
[5]; first data column
  Tumor Growth Inhibition (%) and Regression (−%): 44%
[5]; second data column
  Tumor Growth Inhibition (%) and Regression (−%): 68.7%

## C=CC(=O)N1CCN2C(=O)c3cc(Cl)c(-c4ccc(F)c5sc(N)nc45)c(Cl)c3OCC[C@H]2C1 (atropisomer, axis not shown) [Example 1, (13aS)-9-(2-Amino-7-fluoro-1,3-benzothiazol-4-yl)-8,10-dichloro-2-prop-2-enoyl-1,3,4,12,13,13a-hexahydropyrazino[2,1-d][1,5]benzoxazocin-6-one]
H358 cells
  IC50: 8.3 nM
